Assay results taken from paper PMC6010071, “Blocking oestradiol synthesis pathways with potent and selective coumarin derivatives” (Journal of Enzyme Inhibition and Medicinal Chemistry, 2018).
Where two headings read alike, the source gives them in different places.

Biological target: T1, MAO-B (Homo sapiens, UniProt P27338)
T1 construct: purchased Sigma-Aldrich (St. Louis, MO)
T1 sequence (P27338 1-520): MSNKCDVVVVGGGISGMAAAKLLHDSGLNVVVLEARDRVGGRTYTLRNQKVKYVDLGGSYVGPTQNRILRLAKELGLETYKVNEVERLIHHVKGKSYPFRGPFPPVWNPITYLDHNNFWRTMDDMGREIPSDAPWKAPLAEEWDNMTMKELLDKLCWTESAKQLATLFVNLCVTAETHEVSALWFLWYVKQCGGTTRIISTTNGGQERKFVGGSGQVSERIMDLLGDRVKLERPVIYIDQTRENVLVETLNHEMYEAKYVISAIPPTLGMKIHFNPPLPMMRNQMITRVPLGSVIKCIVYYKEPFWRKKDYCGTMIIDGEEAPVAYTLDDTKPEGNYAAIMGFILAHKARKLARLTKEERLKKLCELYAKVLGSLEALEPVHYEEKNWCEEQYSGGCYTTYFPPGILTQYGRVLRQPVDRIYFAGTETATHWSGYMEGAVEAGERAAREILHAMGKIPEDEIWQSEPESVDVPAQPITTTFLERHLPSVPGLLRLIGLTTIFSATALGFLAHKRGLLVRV
Test: MAO-B inhibition, continuous spectrophotometric assay
Format: biochemical

[1] = duplicated dilution series, read-out: MAO-B inhibition pIC50 (converted)
[2] = restated from pIC50 above 6, read-out: MAO-B inhibition IC50

IC50 [1]	IC50 [2]	SMILES
407 nM	< 1000 nM	COc1ccc2cc(-c3ccc(O)c(F)c3)c(=O)oc2c1 [Compound 6, 3–(3-fluoro-4-hydroxyphenyl)-7-methoxy-2H-chromen-2-one]
851 nM	< 1000 nM	COc1ccc2oc(=O)c(-c3ccc(O)c(F)c3)cc2c1 [Compound 7, 3–(3-fluoro-4-hydroxyphenyl)-6-methoxy-2H-chromen-2-one]
